Read-outs that look alike come from different tables or passages of the source. Marks after values point to notes of the source that are not given here.
Key:
5-HT2A receptor [1] = target: 5-HT2A receptor (Mus musculus, UniProt P35363); details: RSK2+/+ mVSMCs; 100nM
[2] = test system: 5-HT2A-mediated Ca^2+ responses; assay: Growth factor attenuation of 5-HT2A-mediated Ca^2+ responses in MEFs; type: cell-based, mouse
RSK2 = assay: Immunoprecipitation and immunoblot of RSK2 activation; type: cell-based, mouse; details: for maximal activation of RSK2 (sum pixel intensity normalized to total RSK2): RSK2+/+ MEFs, 5 min, EGF 100ng/mL or IGF-1 10nM
IGF-1 R = IGF-1 R (Mus musculus, UniProt Q60751); assay: Immunoblot of IGF-1 R phosphorylation; type: cell-based; details: RSK2+/+ MEFs; 10 nM
IGF-1 R, sequence (Q60751 31-737 limits assumed): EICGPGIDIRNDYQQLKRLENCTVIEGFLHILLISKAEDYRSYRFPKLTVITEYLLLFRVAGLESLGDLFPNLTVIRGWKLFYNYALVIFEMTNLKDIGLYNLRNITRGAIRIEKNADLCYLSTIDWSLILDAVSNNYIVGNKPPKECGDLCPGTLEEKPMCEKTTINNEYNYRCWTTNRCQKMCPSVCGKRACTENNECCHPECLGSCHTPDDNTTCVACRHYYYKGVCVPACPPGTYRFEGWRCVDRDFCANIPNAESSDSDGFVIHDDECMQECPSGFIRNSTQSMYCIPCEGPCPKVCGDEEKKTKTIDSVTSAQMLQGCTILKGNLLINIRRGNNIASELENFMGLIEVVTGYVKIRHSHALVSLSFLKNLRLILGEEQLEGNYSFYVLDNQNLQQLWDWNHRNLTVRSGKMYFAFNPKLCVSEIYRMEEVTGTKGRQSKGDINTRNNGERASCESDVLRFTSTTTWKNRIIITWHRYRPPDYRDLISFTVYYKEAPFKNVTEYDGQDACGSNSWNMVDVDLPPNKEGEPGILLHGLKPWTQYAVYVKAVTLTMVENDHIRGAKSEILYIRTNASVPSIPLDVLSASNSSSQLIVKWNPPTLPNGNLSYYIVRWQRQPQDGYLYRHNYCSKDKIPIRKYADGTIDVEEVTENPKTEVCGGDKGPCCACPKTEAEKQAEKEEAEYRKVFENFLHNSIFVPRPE
IGF-1 R, sequence (Q60751 742-1373 limits assumed): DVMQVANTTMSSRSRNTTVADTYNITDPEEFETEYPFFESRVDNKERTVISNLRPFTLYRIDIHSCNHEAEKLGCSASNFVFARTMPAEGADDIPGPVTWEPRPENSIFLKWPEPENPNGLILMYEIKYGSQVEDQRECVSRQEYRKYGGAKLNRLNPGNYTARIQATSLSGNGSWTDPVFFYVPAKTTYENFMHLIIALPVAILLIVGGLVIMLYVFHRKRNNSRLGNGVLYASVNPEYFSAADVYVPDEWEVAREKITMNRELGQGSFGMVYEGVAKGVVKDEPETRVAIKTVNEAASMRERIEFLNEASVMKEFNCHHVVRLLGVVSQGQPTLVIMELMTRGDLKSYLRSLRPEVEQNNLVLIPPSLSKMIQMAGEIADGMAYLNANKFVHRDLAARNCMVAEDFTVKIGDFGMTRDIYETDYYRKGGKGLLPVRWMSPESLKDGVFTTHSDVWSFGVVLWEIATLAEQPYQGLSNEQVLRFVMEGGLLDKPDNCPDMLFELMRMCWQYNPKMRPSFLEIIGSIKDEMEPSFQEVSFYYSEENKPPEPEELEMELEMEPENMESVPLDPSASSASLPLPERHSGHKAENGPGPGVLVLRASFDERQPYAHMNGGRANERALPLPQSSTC

5-HT2A receptor [3] = target: T1, 5-HT2A receptor (Rattus norvegicus, UniProt P14842); type: cell-based; details: DOI 1μM, infected RSK2+/+ cortical neurons
5-HT2A receptor [4] = type: cell-based, rat; details: uninfected cortical neurons; DOI 1μM
5-HT2A receptor [5] = target: T1, 5-HT2A receptor; assay: cell-based; details: for EC50: pEC50 ± SEM
P2Y purinergic receptor [6] = assay: FLIPR Tetra P2Y-mediated Ca^2+ responses in MEFs; type: cell-based, mouse; details: for EC50: read-out: potency (EC50)
P2Y purinergic receptor [7] = type: cell-based, RSK2+/+ mouse embryonic fibroblasts
P2Y purinergic receptor [8] = type: cell-based, RSK2+/+ mouse embryonic fibroblasts; remark: listed apart in the source
P2Y purinergic receptor [9] = type: cell-based, RSK2+/+ mouse embryonic fibroblasts; remark: listed apart in the source
P2Y purinergic receptor [10] = type: cell-based, RSK2−/− mouse embryonic fibroblasts
P2Y purinergic receptor [11] = type: cell-based, RSK2−/− mouse embryonic fibroblasts; remark: listed apart in the source
P2Y purinergic receptor [12] = type: cell-based, RSK2−/− mouse embryonic fibroblasts; remark: listed apart in the source
[13] = test system: 5-HT2A-mediated Ca^2+ responses; assay: Growth factor attenuation of 5-HT2A-mediated Ca^2+ responses in mVSMCs; type: cell-based, mouse; details: saturating 5-HT 10μM, 60 min treatment
[14] = RSK2+/+ MEFs, EGF 100ng/mL 0 min (untreated)
[15] = RSK2+/+ MEFs, EGF 100ng/mL 60 min
[16] = RSK2−/− MEFs, EGF 100ng/mL 0 min (untreated)
[17] = RSK2−/− MEFs, EGF 100ng/mL 60 min

5-HT2A receptor (Mus musculus, UniProt P35363), sequence (P35363 whole entry): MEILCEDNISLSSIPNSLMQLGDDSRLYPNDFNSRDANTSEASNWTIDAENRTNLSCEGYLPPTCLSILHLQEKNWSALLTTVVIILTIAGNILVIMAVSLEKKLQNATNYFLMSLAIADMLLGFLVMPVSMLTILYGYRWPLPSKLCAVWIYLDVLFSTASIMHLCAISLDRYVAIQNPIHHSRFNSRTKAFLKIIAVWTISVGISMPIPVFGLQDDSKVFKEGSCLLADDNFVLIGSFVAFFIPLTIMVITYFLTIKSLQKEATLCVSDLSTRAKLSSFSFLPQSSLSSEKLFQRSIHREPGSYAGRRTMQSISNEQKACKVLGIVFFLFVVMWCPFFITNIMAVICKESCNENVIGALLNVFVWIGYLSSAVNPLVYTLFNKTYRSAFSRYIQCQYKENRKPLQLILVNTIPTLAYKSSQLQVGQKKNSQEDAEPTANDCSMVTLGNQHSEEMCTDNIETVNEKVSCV

Molecule: COc1cccc([C@H](O)C2CCN(CCc3ccc(F)cc3)CC2)c1OC [MDL100907]
- block of 5-HT-elicited Ca^2+ responses (5-HT2A receptor [1]): blocked

Molecule: insulin: insulin, tested for attenuation of 5-HT2A receptor signaling in MEFs
- effect on 5-HT2A receptor signaling ([2]; MEFs, data not shown): no effect
- activation of RSK2 (RSK2; MEFs, data not shown): modest activation

Molecule: IGF-1: insulin-like growth factor 1, activates the IGF-1 R
- maximal activation of RSK2 (sum pixel intensity normalized to total RSK2) (RSK2): 0.546 × 10^6 +/− 0.107 × 10^6
- activation of IGF-1 R (Tyr(P)1158/1162/1163) (IGF-1 R): activated

Molecule: COc1cc(CC(C)N)c(OC)cc1I.Cl (racemic) [DOI, (±)-2,5-dimethoxy-4-iodoamphetamine hydrochloride]
- Area under curve (5-HT2A receptor [3]; EGF 100ng/mL 60 min): 20.9 +/− 1.2 ^b
- Area under curve (5-HT2A receptor [3]; NRG-1 100ng/mL): 28.6 +/− 1.7 ^b
- Area under curve (5-HT2A receptor [3]; RTK ligand None): 33.7 +/− 1.3
- Ca^2+ response in uninfected neurons (5-HT2A receptor [4]): unresponsive

Molecule: COc1ccc2[nH]cc(CCN(C)C)c2c1 [5-methoxy DMT, 5-methoxy-N,N-dimethyltryptamine]
- EC50 (5-HT2A receptor [5]; [14]): 25.7 nM
- EC50 (5-HT2A receptor [5]; [15]): 67.6 nM
- EC50 (5-HT2A receptor [5]; [16]): 89.1 nM
- EC50 (5-HT2A receptor [5]; [17]): 89.1 nM
- Emax (5-HT2A receptor [5]; read-out: Emax± SEM, %, RSK2+/+ MEFs, EGF 100ng/mL 0 min (untreated)): 86.7%
- Emax (5-HT2A receptor [5]; read-out: Emax± SEM, %, RSK2+/+ MEFs, EGF 100ng/mL 60 min): 79.6%
- Emax (5-HT2A receptor [5]; read-out: Emax± SEM, %, RSK2−/− MEFs, EGF 100ng/mL 0 min (untreated)): 80.4%
- Emax (5-HT2A receptor [5]; read-out: Emax± SEM, %, RSK2−/− MEFs, EGF 100ng/mL 60 min): 79.1%

Molecule: Nc1ncnc2c1ncn2[C@@H]1O[C@H](COP(=O)(O)OP(=O)(O)OP(=O)(O)O)[C@@H](O)[C@H]1O [ATP]
- Emax± SEM, % (P2Y purinergic receptor [6]; [14]): 99.7 +/− 2.0%
- Emax± SEM, % (P2Y purinergic receptor [6]; RSK2+/+ MEFs, EGF 100ng/mL 30 min): 88.4 +/− 2.5 ^d %
- Emax± SEM, % (P2Y purinergic receptor [6]; [15]): 82.5 +/− 3.2 ^d %
- Emax± SEM, % (P2Y purinergic receptor [6]; [16]): 98.6 +/− 3.3%
- Emax± SEM, % (P2Y purinergic receptor [6]; RSK2−/− MEFs, EGF 100ng/mL 30 min): 93.4 +/− 3.2%
- Emax± SEM, % (P2Y purinergic receptor [6]; [17]): 100 +/− 3.5%
- EC50 (P2Y purinergic receptor [6]; RSK2+/+ MEFs, 60 min EGF treatment): 13 µM
- EC50 (P2Y purinergic receptor [6]; RSK2+/+ MEFs, untreated): 7 µM

Molecule: EGF: human epidermal growth factor, canonical EGFR agonist
- IC50 for attenuation of 5-HT2A-mediated Ca^2+ responses ([2]; RSK2+/+ MEFs): 1.3 ng/mL
- peak Ca^2+ release ([2]; RSK2+/+ MEFs, 10nM 5-HT, 100ng/mL EGF 1hr, parallel control of IGF-1 experiments): 80.7 +/− 2.3%
- maximal activation of RSK2 (sum pixel intensity normalized to total RSK2) (RSK2): 1.25 × 10^6 +/− 0.25 × 10^6

Molecule: Nc1ncnc2c1ncn2[C@@H]1O[C@H](COP(=O)(O)OP(=O)(O)OP(=O)(O)O)[C@@H](O)[C@H]1O [ATP, adenosine 5'-triphosphate]
- RSK2+/+ MEFs, 0 min, pEC50 ± SEM (P2Y purinergic receptor [7]): 5.16 +/− 0.05
- RSK2+/+ MEFs, 30 min, pEC50 ± SEM (P2Y purinergic receptor [8]): 4.95 +/− 0.06 ^d
- RSK2+/+ MEFs, 60 min, pEC50 ± SEM (P2Y purinergic receptor [9]): 4.88 +/− 0.09 ^d
- RSK2−/− MEFs, 0 min, pEC50 ± SEM (P2Y purinergic receptor [10]): 5.37 +/− 0.09
- RSK2−/− MEFs, 30 min, pEC50 ± SEM (P2Y purinergic receptor [11]): 5.34 +/− 0.09
- RSK2−/− MEFs, 60 min, pEC50 ± SEM (P2Y purinergic receptor [12]): 5.30 +/− 0.09

Molecule: TGF-α: transforming growth factor-alpha, selective and potent EGFR agonist
- IC50 for attenuation of 5-HT2A-mediated Ca^2+ responses ([2]; RSK2+/+ MEFs): 4.1 ng/mL

B1: PDGF-BB: human platelet-derived growth factor BB, PDGFR ligand (protein, UniProt P01127 82-190, looked up)
Platelet-derived growth …: SLGSLTIAEPAMIAECKTRTEVFEISRRLIDRTNANFLVWPPCVEVQRCSGCCNNRNVQCRPTQVQLRPVQVRKIEIVRKKPIFKKATVTLEDHLACKCETVAAARPVT
- peak Ca^2+ release ([13]; RSK2+/+ cells): 67.0 +/− 8.5%
- peak Ca^2+ release ([13]; RSK2−/− cells): 77.9 +/− 7.6%

— article PMC3107544 (Biochemistry, 2010)
